Like-named read-outs stand apart in the source and are kept apart here. Numbered stars: 1 amine (or outer) side, 2 acyl side, 3 side chain; on linkers, the order of the positions; unused ones are H or OH. Bridge positions count the residues as written; N and C are the ends. Square brackets hold non-standard residues; d marks the D form. Peptide text beside a SMILES is read from it. * marks the point of attachment. TtdsdLys(DOTA)NH2 = NC(=O)[C@@H](CCCCNC(=O)CN1CCN(CC(=O)O)CCN(CC(=O)O)CCN(CC(=O)O)CC1)NC(=O)CCC(=O)NCCCOCCOCCOCCCN*; X3 = O=C(O)CN1CCN(CC(=O)O)CCN(CC(=O)NCCCOCCOCCOCCCN*)CCN(CC(=O)O)CC1; X2 = O=C(O)CN1CCN(CC(=O)O)CCN([C@H](CCC(=O)*)C(=O)O)CCN(CC(=O)O)CC1; DOTA = O=C(O)CN1CCN(CC(=O)O)CCN(CC(=O)*)CCN(CC(=O)O)CC1; Phe(4-Cl) = N[C@@H](Cc1ccc(Cl)cc1)C(=O)O; Ethylenediamine = C(CN[*:2])N[*:1]; X1 = O=C(CC1CCN([*:1])CC1)[*:2]; Suc = O=C(CCC(=O)[*:2])[*:1]; Tle = CC(C)(C)[C@H](N)C(=O)O; Aib = CC(C)(N)C(=O)O
Key:
PC3-PIP tumor model = test system: PC3-PIP tumor model; design: species or system mice; conditions: mouse, in vivo
Description: Radioactively labeled compounds can be detected by imaging methods such as SPECT and PET. Furthermore, the data acquired by such techniques can be confirmed by direct measurement of radioactivity contained in the individual organs prepared from an animal injected with a radioactively labeled compound of the disclosure. Thus, the biodistribution (the measurement of radioactivity in individual organs) of a radioactively labeled compound can be determined and analyzed. […] All animal experiments were conducted in compliance with the German animal protection laws. Male swiss or NMRI nude mice (6-8 weeks old, Janvier Labs, France) were inoculated with 5×10^6 PC3-PIP cells in the right shoulder. For selected compounds an additional model was used, here male NMRI nude mice (6-8 weeks old, Janvier Labs, France) were inoculated with 5×10^6 or/1×10^7 C4-2 cells in the right shoulder. When tumors reached an appropriate size, the mice received ˜30 MBq ^111In-labeled compounds of the disclosure (diluted to 100 μL with PBS) administered intravenously via the tail vein. Images were obtained on a NanoSPECT/computed tomography system (Mediso Medical Imaging Systems, Budapest, Hungary) using exemplarily the following acquisition and reconstruction parameters (Table 10). [table] Imaging data were saved as DICOM files and analysed using VivoQuant™ software (Invicro, Boston, USA). In brief, regions of interest (ROIs) were drawn based on computed tomography images for the relevant organs and tissue regions such as heart (estimate of blood pool, bps), kidney, and tumor. The resulting numeric data expressed as a percentage of injected dose per gram of tissue (% ID/g) are presented in FIGS. 3(a)-3(ii) for the PC3-PIP model and FIGS. 4(a)-4(r) for the C4-2 model. Bars show mean % ID/g values of two to three animals per time point. Error bars indicate the value range (minimum and maximum values).

[1] = target: T1, PSMA-expressing C4-2 cells (Homo sapiens, UniProt Q04609); assay: FACS binding assay (competition with 50 nM PSM-0183); conditions: FACS binding, read-out: pIC50 [C4-2] CAT (converted)
T1 construct: PSMA-expressing C4-2 cells (ATCC, Cat. No. CRL-3314) were cultured in RPMI-1640; host or cells: C4-2 cells
In short: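 Competition format: fluorescent tracer PSM-0183 (50 nM) displaced from PSMA on C4-2 cells by a test compound titration over 1 h at 4 °C. Bound tracer was quantified as flow-cytometric AF488 median fluorescence after washing. Four-parameter logistic fits of MFI data gave IC50 and pIC50.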

[2] = target: T2, Fc-fusion protein of human PSMA (hPSMA-Fc) (Homo sapiens, UniProt Q04609); assay: Surface plasmon resonance assay (Biacore T200, single cycle kinetic); assay type: binding; conditions: read-out: pKD CAT (converted)
T2 construct: purchased Acro Biosystems PSA-H5264
In short: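 KD, expressed as pKD, came from 1:1 Langmuir fits of reference- and buffer-blank-subtracted SPR data. The runs were single-cycle kinetics at 25° C in HBST/0.1% DMSO over human PSMA-Fc, captured to ~1000 RU on a peptide-coated CM5 surface and regenerated with 10 mM glycine pH 1.5.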

[3] = C4-2 cells, competition with 50 nM PSM-0183, category
[4] = SPR, hPSMA-Fc, single cycle kinetic, 25° C., category
[5] = PSMA-expressing C4-2 cells, pIC50 category
[6] = PSMA SPR assay, hPSMA-Fc, 25° C., pKD category

T2 sequence (Q04609 44-750 limits assumed): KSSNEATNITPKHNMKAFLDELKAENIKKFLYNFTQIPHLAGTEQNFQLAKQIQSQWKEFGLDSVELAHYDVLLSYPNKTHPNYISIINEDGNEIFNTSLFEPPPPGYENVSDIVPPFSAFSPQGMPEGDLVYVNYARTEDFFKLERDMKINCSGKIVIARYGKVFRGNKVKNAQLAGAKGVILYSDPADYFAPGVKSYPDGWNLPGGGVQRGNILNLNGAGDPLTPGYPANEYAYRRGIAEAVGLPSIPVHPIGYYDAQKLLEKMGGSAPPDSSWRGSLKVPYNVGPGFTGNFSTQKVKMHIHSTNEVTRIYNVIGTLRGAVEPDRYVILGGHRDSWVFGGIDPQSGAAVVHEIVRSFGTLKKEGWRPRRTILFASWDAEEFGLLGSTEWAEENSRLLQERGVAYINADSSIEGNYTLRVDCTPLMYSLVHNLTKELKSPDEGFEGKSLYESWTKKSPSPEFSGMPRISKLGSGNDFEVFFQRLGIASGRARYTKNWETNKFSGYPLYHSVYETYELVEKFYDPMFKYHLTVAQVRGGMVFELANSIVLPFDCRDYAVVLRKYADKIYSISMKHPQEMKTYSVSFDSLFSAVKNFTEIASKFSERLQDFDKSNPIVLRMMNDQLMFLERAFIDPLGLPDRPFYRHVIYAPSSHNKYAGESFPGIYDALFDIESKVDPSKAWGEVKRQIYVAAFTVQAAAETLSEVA
T1 sequence (Q04609 whole entry): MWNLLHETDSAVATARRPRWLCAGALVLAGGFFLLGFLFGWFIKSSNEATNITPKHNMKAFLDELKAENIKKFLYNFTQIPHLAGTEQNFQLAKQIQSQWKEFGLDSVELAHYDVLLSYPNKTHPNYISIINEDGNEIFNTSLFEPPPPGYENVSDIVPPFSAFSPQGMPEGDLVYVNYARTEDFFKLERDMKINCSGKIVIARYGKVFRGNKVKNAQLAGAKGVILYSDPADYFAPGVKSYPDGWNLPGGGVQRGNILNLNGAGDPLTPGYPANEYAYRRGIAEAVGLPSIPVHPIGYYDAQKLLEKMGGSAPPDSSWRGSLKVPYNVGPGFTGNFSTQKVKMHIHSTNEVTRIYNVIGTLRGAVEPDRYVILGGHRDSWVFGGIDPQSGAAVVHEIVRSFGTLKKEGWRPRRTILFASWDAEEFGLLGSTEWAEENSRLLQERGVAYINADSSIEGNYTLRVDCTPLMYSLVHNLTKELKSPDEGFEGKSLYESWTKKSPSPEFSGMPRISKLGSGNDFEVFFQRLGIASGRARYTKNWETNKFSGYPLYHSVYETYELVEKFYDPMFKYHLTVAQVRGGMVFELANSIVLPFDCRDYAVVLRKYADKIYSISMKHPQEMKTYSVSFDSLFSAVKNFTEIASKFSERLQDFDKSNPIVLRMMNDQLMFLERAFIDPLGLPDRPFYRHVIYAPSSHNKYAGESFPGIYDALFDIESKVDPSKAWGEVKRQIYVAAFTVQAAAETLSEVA

| SMILES | AUC ratio [T/K] (PC3-PIP tumor model) | Tumor AUC (PC3-PIP tumor model) | IC50 [1, 3] | Kd [2, 4] | IC50 [1, 5] | Kd [2, 6] | IC50 ([1]; C4-2 cells, category) | Kd ([2]; PSMA SPR assay, category) |
| --- | --- | --- | --- | --- | --- | --- | --- | --- |
| C[C@@H]1NC(=O)[C@H](CCCNC(=N)N)NC(=O)[C@H](CCCCN)NC(=O)[C@@H](NC(=O)[C@H](Cc2ccccc2)NC(=O)C(C)(C)NC(=O)[C@@H](NC(=O)CCC(=O)NCCCOCCOCCOCCCNC(=O)CN2CCN(CC(=O)O)CCN(CC(=O)O)CCN(CC(=O)O)CC2)[C@@H](C)O)CSSC[C@@H](C(=O)N[C@H](C(=O)N[C@H](C(N)=O)[C@@H](C)O)C(C)(C)C)NC(=O)[C@H](CC(N)=O)NC1=O [PSM-0237, DOTA-Ttds-Thr-Aib-Phe-[Cys-Lys-Arg-Ala-Asn-Cys]-Tle-Thr-NH2] ({X3-Suc}-T[Aib]FCKRANC[Tle]T-NH2; disulfide 4-9) | 0.44 | 180 % ID/g*h | < 200 nM | < 12.6 nM | – | – | – | – |
| CC(=O)N[C@H](C(=O)NC(C)(C)C(=O)N[C@@H](Cc1ccccc1)C(=O)N[C@H]1CSSC[C@@H](C(=O)N[C@H](C(=O)N[C@H](C(=O)NCCCOCCOCCOCCCNC(=O)CCC(=O)N[C@H](CCCCNC(=O)CN2CCN(CC(=O)O)CCN(CC(=O)O)CCN(CC(=O)O)CC2)C(N)=O)[C@@H](C)O)C(C)(C)C)NC(=O)[C@H](CC(N)=O)NC(=O)C(C)(C)NC(=O)[C@H](CCCNC(=N)N)NC(=O)[C@H](CCCCN)NC1=O)[C@@H](C)O [PSM-0285, Ac-Thr-Aib-Phe-[Cys-Lys-Arg-Aib-Asn-Cys]-Tle-Thr-Ttds-lys(DOTA)-NH2] (Ac-T[Aib]FCKR[Aib]NC[Tle]T-{TtdsdLys(DOTA)NH2}; disulfide 4-9) | 0.91 | 210 % ID/g*h | – | – | < 200 nM | < 12.6 nM | – | – |
| CC(=O)N[C@H](C(=O)NC(C)(C)C(=O)N[C@@H](Cc1ccccc1)C(=O)N[C@H]1CSSC[C@@H](C(=O)N[C@H](C(=O)N[C@H](C(=O)N2CCC(CC(=O)N[C@H](CCCCNC(=O)CC[C@H](C(=O)O)N3CCN(CC(=O)O)CCN(CC(=O)O)CCN(CC(=O)O)CC3)C(N)=O)CC2)[C@@H](C)O)C(C)(C)C)NC(=O)[C@H](CC(N)=O)NC(=O)C(C)(C)NC(=O)[C@H](CCCNC(=N)N)NC(=O)[C@H](CCCCN)NC1=O)[C@@H](C)O [PSM-0339, Ac-Thr-Aib-Phe-[Cys-Lys-Arg-Aib-Asn-Cys]-Tle-Thr-Cmp-lys (DOTAGA)-NH2] (Ac-T[Aib]FCKR[Aib]NC[Tle]T[X1][dK](X2)-NH2; disulfide 4-9) | 1.2 | 160 % ID/g*h | – | – | < 200 nM | < 12.6 nM | – | – |

Second part, the compound after the results:

| AUC ratio [T/K] (PC3-PIP tumor model) | Tumor AUC (PC3-PIP tumor model) | IC50 [1, 3] | Kd [2, 4] | IC50 [1, 5] | Kd [2, 6] | IC50 ([1]; C4-2 cells, category) | Kd ([2]; PSMA SPR assay, category) | SMILES |
| --- | --- | --- | --- | --- | --- | --- | --- | --- |
| 1.1 | 160 % ID/g*h | – | – | – | – | < 200 nM | < 12.6 nM | C[C@@H](O)[C@H](NC(=O)[C@@H](NC(=O)[C@@H]1CSSC[C@H](NC(=O)[C@H](Cc2ccc(Cl)cc2)NC(=O)C(C)(C)NC(=O)[C@@H](NC(=O)CN2CCN(CC(=O)O)CCN(CC(=O)O)CCN(CC(=O)O)CC2)[C@@H](C)O)C(=O)N[C@@H](CCCCN)C(=O)N[C@@H](CCCNC(=N)N)C(=O)NC(C)(C)C(=O)N[C@@H](CC(N)=O)C(=O)N1)C(C)(C)C)C(N)=O [PSM-0573, DOTA-Thr-Aib-Pcf-[Cys-Lys-Arg-Aib-Asn-Cys]-Tle-Thr-NH2] ({DOTA}-T[Aib][Phe(4-Cl)]CKR[Aib]NC[Tle]T-NH2; disulfide 4-9) |
| 0.33 | 170 % ID/g*h | < 200 nM | < 12.6 nM | – | – | – | – | C[C@@H](O)[C@H](NC(=O)CN1CCN(CC(=O)O)CCN(CC(=O)O)CCN(CC(=O)O)CC1)C(=O)NC(C)(C)C(=O)N[C@@H](Cc1ccccc1)C(=O)N[C@H]1CSSC[C@@H](C(=O)N[C@H](C(=O)NCCN)C(C)(C)C)NC(=O)[C@H](CC(N)=O)NC(=O)C(C)(C)NC(=O)[C@H](CCCNC(=N)N)NC(=O)[C@H](CCCCN)NC1=O [PSM-0199, DOTA-Thr-Aib-Phe-[Cys-Lys-Arg-Aib-Asn-Cys]-Tle-en] ({DOTA}-T[Aib]FCKR[Aib]NC[Tle]-Ethylenediamine; disulfide 4-9) |

Reference: patent US20260083865A1, “PROSTATE SPECIFIC MEMBRANE ANTIGEN (PSMA) LIGANDS AND USE THEREOF” (priority 2022, published 2026)
